In patent US20230279020A9, “CARM1 INHIBITORS AND USES THEREOF” (Epizyme, Inc., priority 2013, published 2023):

Each compound was assayed against Human CARM1 (PRMT4) (Homo sapiens (Human), UniProt Q86X55) (assay: CARM1 enzyme assay on peptide substrate (3H-SAM Flashplate)). Conditions: Biochemical potencies, classification codes; read-out: Biochem IC50.
Chain of Human CARM1 (PRMT4) (Q86X55 other isoform, or with tags, fused parts or gaps isoform Q86X55-1): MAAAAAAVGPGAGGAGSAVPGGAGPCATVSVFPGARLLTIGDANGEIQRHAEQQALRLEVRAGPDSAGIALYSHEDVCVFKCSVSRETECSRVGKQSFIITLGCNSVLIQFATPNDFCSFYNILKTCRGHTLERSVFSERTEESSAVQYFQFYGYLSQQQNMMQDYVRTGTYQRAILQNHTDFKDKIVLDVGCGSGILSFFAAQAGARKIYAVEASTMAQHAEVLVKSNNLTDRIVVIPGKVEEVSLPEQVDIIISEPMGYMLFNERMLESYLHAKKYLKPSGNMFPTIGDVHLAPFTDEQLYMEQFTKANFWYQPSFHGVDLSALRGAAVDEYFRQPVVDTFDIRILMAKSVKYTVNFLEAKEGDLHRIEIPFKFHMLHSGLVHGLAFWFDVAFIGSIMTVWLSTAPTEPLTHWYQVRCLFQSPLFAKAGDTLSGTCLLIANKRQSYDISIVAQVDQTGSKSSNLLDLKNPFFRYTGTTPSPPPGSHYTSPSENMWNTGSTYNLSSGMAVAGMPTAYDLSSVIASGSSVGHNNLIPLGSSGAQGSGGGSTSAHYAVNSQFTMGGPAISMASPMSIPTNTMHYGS
For `CCOC(=O)N1CCN(c2nc(-c3cccc(OCC(O)CNC)c3)nc(N[C@@H]3CCOC3)c2C)CC1` (stereo partly drawn) [Example 456-1a], the IC50 was < 100 nM. With `C=C(C)c1nc(-c2cccc(OCC(O)CNC)c2)cc(N(C)C2CCOCC2)n1` (stereo not drawn) [Example 5-2] the IC50 was < 100 nM. `CNCC(O)COc1cccc(-c2nc(OCC3CCN(C(=O)OCc4ccccc4)CC3)c(C)c(-c3c(C)noc3C)n2)c1` (stereo not drawn) [Example 259-1a] was tested, and the IC50 was < 100 nM. `CNCC(O)COc1cccc(-c2nc(C3CC3)cc(N(C)C3CCOCC3)n2)c1` (stereo not drawn) [Example 10-1] was tested, and the IC50 was < 100 nM. In the case of `CCO[C@H]1CCC[C@@H]1Nc1nc(-c2cc(OC[C@H](O)CNC)ccc2Cl)nc(-c2c(C)noc2C)c1C` [Example 222-3], the IC50 is reported as < 100 nM. For `CNC[C@H](O)COc1cccc(-c2nc(NC3CCN(C(=O)OC)C(C)C3)c(C)c(-c3c(C)noc3C)n2)c1` (stereo partly drawn) [Example 33-3], the IC50 was < 100 nM. For `CNCC(O)COc1cccc(-c2nc(Nc3nncs3)c(C)c(-c3c(C)noc3C)n2)c1` (stereo not drawn) [Example 215-1a], the IC50 was < 100 nM. In the case of `CCS(=O)(=O)N1CCOC[C@@H]1CNc1nc(-c2cccc(OCC(O)CNC)c2)nc(-c2c(C)nsc2C)c1C` (stereo partly drawn) [Example 71-3], the IC50 is reported as < 100 nM. `CNCC(O)COc1cccc(-c2nc(-c3c(C)noc3C)cc(N3CCN(C(C)=O)[C@@H](C)C3)n2)c1` (stereo partly drawn) [Example 38-1a] was tested, and the IC50 was < 100 nM. In the case of `CNC[C@@H](O)COc1ccc(Cl)c(-c2nc(-c3c(C)noc3C)c(C)c(N3Cc4cnc(C(C)C)nc4C3)n2)c1` [Example 264-3], the IC50 is reported as < 100 nM. In the case of `CNCC(O)COc1cccc(-c2nc(N[C@H]3CCOC3)c(C)c(N3CCC(O)CC3)n2)c1` (stereo partly drawn) [Example 362-1a], the IC50 is reported as < 100 nM. For `CNCC(O)COc1ccc(C)c(-c2nc(NC3CCOC(C)C3)c(C)c(-c3c(C)noc3C)n2)c1` (stereo not drawn) [Example 124-3], the IC50 was < 100 nM. `CNCC(O)COc1cccc(-c2nc(-c3c(C)noc3C)c(C)c(N3CC4(CN(C(=O)OC)C4)C3)n2)c1` (stereo not drawn) [Example 299-1a] was tested, and the IC50 was < 100 nM. For `CNCC(O)COc1cccc(-c2nc(NC3CCNC[C@H]3F)c(C)c(-c3c(C)noc3C)n2)c1` (stereo partly drawn) [Example 207-1a], the IC50 was < 100 nM. For `CNCC(O)COc1cccc(-c2nc(-c3c(C)noc3C)cc(N3CCN(CC(F)(F)F)[C@@H](C)C3)n2)c1` (stereo partly drawn) [Example 104-1a], the IC50 was < 100 nM. For `CNCC(O)COc1ccc(Cl)c(-c2nc(N[C@H]3CCC[C@@H](O)C3)c(C)c(-c3c(C)noc3C)n2)c1` (stereo partly drawn) [Example 39-3], the IC50 was < 100 nM. In the case of `CC[C@H]1CN(c2nc(-c3cccc(OCC(O)CNC)c3)nc(-c3c(C)noc3C)c2C)CCN1S(=O)(=O)CC` (stereo partly drawn) [Example 154-1a], the IC50 is reported as < 100 nM. With `CNCC(O)COc1cccc(-c2nc(-c3c(C)noc3C)c(C)c(N3CCO[C@H](CN(C)C)C3)n2)c1` (stereo partly drawn) [Example 151-1a] the IC50 was < 100 nM. For `CNCC(O)COc1cccc(-c2nc(N[C@@H]3CCOC3)c(C)c(N3CCC4(CN(CC(F)F)C4)C3)n2)c1` (stereo partly drawn) [Example 475-1a], the IC50 was < 100 nM. With `CNC[C@@H](O)COc1ccc(Cl)c(-c2nc(N[C@H]3CCN(C4CC4)C[C@H]3F)c(Cl)c(-c3c(C)noc3C)n2)c1` [Example 195-3] the IC50 was < 100 nM. `CNCC(O)COc1cccc(-c2nc(N(C)C3CCOCC3)c(C)c(N3CCNC[C@@H]3C)n2)c1` (stereo partly drawn) [Example 567-1a] was tested, and the IC50 was < 100 nM. For `CNC[C@@H](O)COc1ccc(Cl)c(-c2nc(-c3c(C)noc3C)c(C)c(N3Cc4ccncc4C3)n2)c1` [Example 159-3], the IC50 was < 100 nM. For `CCOC(=O)N1CC2(CCCN(c3nc(-c4cccc(OCC(O)CNC)c4)nc(-c4c(C)noc4C)c3C)C2)C1` (stereo not drawn) [Example 295-1a], the IC50 was < 100 nM. For `CNC[C@@H](O)COc1ccc(F)c(-c2nc(-c3c(C)noc3C)c(Cl)c(N3Cc4nccnc4C3)n2)c1` [Example 295-3], the IC50 was < 100 nM. For `CNCC(O)COc1cccc(-c2nc(NC(C)C)cc(N(C)C3CCOCC3)n2)c1` (stereo not drawn) [Example 22-1], the IC50 was < 100 nM. With `CNCC(O)COc1cccc(-c2nc(N3CCO[C@H](CN)C3)cc(N(C)C3CCOCC3)n2)c1` (stereo partly drawn) [Example 524-1a] the IC50 was < 100 nM. With `CCOC(=O)N1CC[C@@H](Nc2nc(-c3cccc(OCC(O)CNC)c3)nc(-c3c(C)noc3C)c2C)[C@@H](F)C1` (stereo partly drawn) [Example 226-1a] the IC50 was < 100 nM. With `CNCC(O)COc1ccc(Cl)c(-c2nc(NC[C@@H]3CCCO3)c(C)c(-c3c(C)noc3C)n2)c1` (stereo partly drawn) [Example 7-3] the IC50 was < 100 nM. With `CNCC(O)COc1cccc(-c2nc(N[C@H]3[C@@H]4CN(C(=O)OC)C[C@@H]43)c(C)c(-c3c(C)noc3C)n2)c1` (stereo partly drawn) [Example 282-1a] the IC50 was < 100 nM. With `CNCC(O)COc1cccc(-c2nc(NC3CCOCC3)c(C)c(-c3c(C)noc3C3CC3)n2)c1` (stereo not drawn) [Example 236-1a] the IC50 was < 100 nM. `CNCC(O)COc1cccc(-c2nc(-c3cccc4ncccc34)cc(N(C)C3CCOCC3)n2)c1` (stereo not drawn) [Example 616-1a] was tested, and the IC50 was < 100 nM. With `CCOC(=O)N1CCC(N(C)c2cc(-c3c(C)noc3C)nc(-c3cccc(OCC(O)CNC)c3)n2)CC1` (stereo not drawn) [Example 172-1a] the IC50 was < 100 nM. For `CNCC(O)COc1cccc(-c2nc(N[C@@H]3CCOC3)c(C)c(N3CCC4(CCNCC4)CC3)n2)c1` (stereo partly drawn) [Example 429-1a], the IC50 was < 100 nM. With `CNCC(O)COc1cccc(-c2nc(N3CCN(C(=O)OC)[C@@H](C)C3)cc(N(C)C3CCOCC3)n2)c1` (stereo partly drawn) [Example 581-1a] the IC50 was < 100 nM. `CNC[C@@H](O)COc1cccc(-c2nc(-c3c(C)noc3C)c(C)c(-c3cn(S(C)(=O)=O)c4ncncc34)n2)c1` [Example 156-1a] was tested, and the IC50 was < 100 nM. `CNCC(O)COc1cc(Cl)cc(-c2nc(N[C@H]3CCOC3)cc(-c3c(C)noc3C)n2)c1` (stereo partly drawn) [Example 12-1a] was tested, and the IC50 was < 100 nM. In the case of `CNC[C@@H](O)COc1ccc(Cl)c(-c2nc(-c3c(C)noc3C)c(C)c(N3Cc4cn[nH]c4C3)n2)c1` [Example 231-3], the IC50 is reported as < 100 nM. With `CNCC(O)COc1cccc(-c2nc(N3CC4(CCNCC4)c4ccccc43)cc(N(C)C3CCOCC3)n2)c1` (stereo not drawn) [Example 559-1a] the IC50 was < 100 nM. With `CNCC(O)COc1cccc(-c2nc(NCC3(N(C)C)CCOCC3)c(C)c(-c3c(C)noc3C)n2)c1` (stereo not drawn) [Example 140-1a] the IC50 was < 100 nM. For `CCS(=O)(=O)N1CCC(Nc2nc(-c3cc(OC[C@@H](O)CNC)ccc3Cl)nc(-c3c(C)noc3C)c2C)CC1` [Example 67-3], the IC50 was < 100 nM. With `CNCC(O)COc1cccc(-c2nc(-c3c(C)noc3C)cc(N3CCN(CC(F)(F)F)CC3)n2)c1` (stereo not drawn) [Example 132-1a] the IC50 was < 100 nM. For `CNCC(O)COc1cccc(-c2nc(-c3c(C)noc3C)c(C)c(N3CCC[C@@H](NC)C3)n2)c1` (stereo partly drawn) [Example 177-1a], the IC50 was < 100 nM. For `CNCC(O)COc1cccc(-c2nc(-c3c[nH]c4ncncc34)cc(N(C)C3CCOCC3)n2)c1` (stereo not drawn) [Example 504-1a], the IC50 was < 100 nM. `CNC[C@@H](O)COc1ccc(Cl)c(-c2nc(-c3c(C)noc3C)c(C)c(N3Cc4c(C)nn(C)c4C3)n2)c1` [Example 236-3] was tested, and the IC50 was < 100 nM. For `CNCC(O)COc1cccc(-c2nc(-c3c(C)noc3C)c(C)c(N3Cc4cccnc4C3)n2)c1` (stereo not drawn) [Example 35-3], the IC50 was < 100 nM. In the case of `CNCC(O)COc1cc(Cl)cc(-c2nc(NC3CCNCC3)cc(-c3ccncc3)n2)c1` (stereo not drawn) [Example 665-1a], the IC50 is reported as < 100 nM. In the case of `CNCC(O)COc1cccc(-c2nc(N[C@@H]3CCOC3)c(C)c(N3CC[C@@H](N(C)C)C3)n2)c1` (stereo partly drawn) [Example 392-1a], the IC50 is reported as < 100 nM. `CNCC(O)COc1cccc(-c2nc(N[C@@H]3CCOC3)c(C)c(N3C[C@H]4CNC[C@H]4C3)n2)c1` (stereo partly drawn) [Example 440-1a] was tested, and the IC50 was < 100 nM. In the case of `CNCC(O)COc1cccc(-c2nc(NC3CCS(=O)(=O)CC3)cc(-c3c(C)noc3C)n2)c1` (stereo not drawn) [Example 60-1a], the IC50 is reported as < 100 nM. For `CNC[C@@H](O)COc1ccc(F)c(-c2nc(-c3c(C)noc3C)cc(N3Cc4cnn(C)c4C3)n2)c1` [Example 275-3], the IC50 was < 100 nM. In the case of `CNC[C@@H](O)COc1ccc(Cl)c(-c2nc(N[C@H]3CCN(C)C[C@H]3F)c(C)c(-c3c(C)noc3C)n2)c1` [Example 147-3], the IC50 is reported as < 100 nM. For `CNCC(O)COc1cccc(-c2nc(-c3cccc(C#N)c3)cc(N(C)C3CCOCC3)n2)c1` (stereo not drawn) [Example 622-1a], the IC50 was < 100 nM. In the case of `CNCC(O)COc1cccc(-c2nc(-c3cncnc3)cc(-c3c(C)noc3C)n2)c1` (stereo not drawn) [Example 8-1a], the IC50 is reported as < 100 nM. In the case of `CNCC(O)COc1cc(Cl)cc(-c2nc(Nc3cncnc3)cc(-c3c(C)noc3C)n2)c1` (stereo not drawn) [Example 9-1a], the IC50 is reported as < 100 nM. For `CNC[C@@H](O)COc1ccc(Cl)c(-c2nc(N[C@@H]3CCO[C@H](C)C3)c(C)c(-c3c(C)noc3C)n2)c1` [Example 132-3], the IC50 was < 100 nM. In the case of `CNCC(O)COc1cccc(-c2nc(N[C@H]3C[C@@](C)(O)C3)c(C)c(-c3c(C)noc3C)n2)c1` (stereo partly drawn) [Example 255-1a], the IC50 is reported as < 100 nM. For `CNC[C@@H](O)COc1ccc(Cl)c(-c2nc(-c3c(C)noc3C)c(C)c(N3CCc4ccncc43)n2)c1` [Example 174-3], the IC50 was < 100 nM. In the case of `CNC[C@@H](O)COc1ccc(Cl)c(-c2nc(OC[C@H]3CCOC3)c(C)c(-c3c(C)noc3C)n2)c1` [Example 117-3], the IC50 is reported as < 100 nM. In the case of `CNC[C@@H](O)COc1ccc(Cl)c(-c2nc(OC[C@@H]3CCOC3)c(C)c(-c3c(C)noc3C)n2)c1` [Example 126-3], the IC50 is reported as < 100 nM. For `CNCC(O)COc1ccc(Cl)c(-c2nc(NC3CCOCC3)c(C)c(-c3c(CO)noc3C)n2)c1` (stereo not drawn) [Example 273-3], the IC50 was < 100 nM. `CNC[C@@H](O)COc1ccc(Cl)c(-c2nc(N[C@H]3CCN(C(=O)OC)[C@H](C)C3)c(C)c(-c3c(C)noc3C)n2)c1` [Example 102-3] was tested, and the IC50 was < 100 nM. `CNCC(O)COc1cccc(-c2nc(-c3c(C)noc3C)cc(-c3cnc4cnccn34)n2)c1` (stereo not drawn) [Example 112-1a] was tested, and the IC50 was < 100 nM. `CNCC(O)COc1cccc(-c2nc(-c3c(C)noc3C)cc(N3CCN(CC(F)F)[C@H](C)C3)n2)c1` (stereo partly drawn) [Example 174-1a] was tested, and the IC50 was < 100 nM. For `CNCC(O)COc1cccc(-c2nc(-c3c(C)noc3C)cc(N(C)C3CCN(C(=O)OC)CC3)n2)c1` (stereo not drawn) [Example 90-1a], the IC50 was < 100 nM. `CNCC(O)COc1cccc(-c2nc(OCC3CCNCC3)c(C)c(-c3c(C)noc3C)n2)c1` (stereo not drawn) [Example 289-1a] was tested, and the IC50 was < 100 nM. `CNCC(O)COc1cccc(-c2nc(-c3scnc3C)cc(N(C)C3CCOCC3)n2)c1` (stereo not drawn) [Example 495-1a] was tested, and the IC50 was < 100 nM. In the case of `CNCC(O)COc1cccc(-c2nc(-c3cnc4ncnn4c3)cc(N(C)C3CCOCC3)n2)c1` (stereo not drawn) [Example 536-1a], the IC50 is reported as < 100 nM. `CNC[C@@H](O)COc1ccc(Cl)c(-c2nc(-c3c(C)noc3C)cc(N3Cc4cnn(C)c4C3)n2)c1` [Example 250-3] was tested, and the IC50 was < 100 nM. For `CNC[C@@H](O)COc1ccc(Cl)c(-c2nc(-c3c(C)noc3C)c(C)c(N3Cc4cc(F)cnc4C3)n2)c1` [Example 157-3], the IC50 was < 100 nM.
